A word on the EC50: it is the concentration needed to bring the measured effect to its halfway point. A word on the pIC50: it is −log10 of the IC50, conventionally taken in molar units.

The structures appear in SMILES notation. pIC50: −log10 of the molar value. ≈ marks a conversion by molar mass, not a printed value. Calls of active or inactive are those of the source. The rule behind the calls is not given here.

This is an account of results in ChEMBL document CHEMBL3091354, “Tyrosinase and Layer-by-Layer supported tyrosinases in the synthesis of lipophilic catechols with antiinfluenza activity” (Bioorg Med Chem, 2013).

The subject of series [1] is Influenza A virus. As to the kind of experiment: Antiviral activity against Influenza A/PR8/H1N1 virus infected in MDCK cells assessed as inhibition of virus yield at 10 to 20 ug/ml after 48 hrs. It is filed as functional, organism-based.
Series [2] relates to Influenza A virus. As to the kind of experiment: Antiviral activity against Influenza A/PR8/H1N1 virus infected in MDCK cells assessed as inhibition of virus yield after 48 hrs. It is filed as functional.
The test system of series [3] is Radical scavenging activity. As to the kind of experiment: Antioxidant activity assessed as DPPH radical scavenging activity. It is filed as functional.
In series [4] the test system is Influenza A virus. As to the kind of experiment: Antiviral activity against Influenza A/PR8/H1N1 virus infected in MDCK cells assessed as inhibition of virus yield after 24 hrs. It is filed as functional, organism-based.
Series [5] deals with MDCK. As to the kind of experiment: Cytotoxicity against MDCK cells assessed as effect on cell morphology at 50 to 100 ug/ml. It is filed as cell-based, Canis lupus familiaris. The note with it: dog.
Series [6] concerns MDCK. As to the kind of experiment: Cytotoxicity against MDCK cells assessed as effect on cell viability at 50 to 100 ug/ml. It is filed as cell-based, Canis lupus familiaris. The conditions noted are these: dog.
Series [7] has as its system MDCK. As to the kind of experiment: Cytotoxicity against MDCK cells assessed as effect on cell morphology at 20 ug/ml. It is filed as cell-based, Canis lupus familiaris. The note with it: dog.
Series [8] relates to MDCK. As to the kind of experiment: Cytotoxicity against MDCK cells assessed as effect on cell viability at 20 ug/ml. It is filed as cell-based, Canis lupus familiaris. The conditions noted are these: dog.

On to `CCCC(=O)OCCc1ccc(O)cc1`, for which the outcome with Influenza A virus [1] was inactive.
On to `COC(=O)CCc1ccc(O)c(O)c1`, for which the inhibition entry in the series with Influenza A virus [2] is “inactive”. Also, in series [3], the EC50 was 161.9 µg/mL (≈ 825 µM).
Consider `O=C(O)CCc1ccc(O)cc1`, for which, in series [3], the result was inactive.
Consider `NC(=O)c1ncn([C@@H]2O[C@H](CO)[C@@H](O)[C@H]2O)n1` [RIBAVIRIN], for which the negative-log IC50 (pIC50) in the series on Influenza A virus [4] is 4.85.
Regarding `CC(=O)OCCc1ccc(O)c(O)c1`, the inhibition entry in the series with Influenza A virus [2] is “inactive”. Besides, the EC50 in series [3] came to 0.57 µg/mL (≈ 2.91 µM).
On the same counts, the results for `O=C(O)CCc1ccc(O)c(O)c1` [DIHYDROCAFFEIC ACID] are “inactive” and 61.29 µg/mL (≈ 336 µM).
On the same counts, the results for `CCCCOC(=O)CCc1ccc(O)c(O)c1` are “inactive” and 58.9 µg/mL (≈ 247 µM).
For the compound `CCCCC(=O)OCCc1ccc(O)c(O)c1`, the Activity entry was “Toxic” in the series with MDCK [5], “Toxic” with MDCK [6], “Non-toxic” in the series on MDCK [7] and “Non-toxic” in the series with MDCK [8]. The pIC50 in the series on Influenza A virus [4] is 4.47. Besides, the inhibition entry in the series with Influenza A virus [4] was “Dose-dependent effect”. In addition, the EC50 in series [3] worked out at 0.59 µg/mL (≈ 2.48 µM).
`CCOC(=O)CCc1ccc(O)c(O)c1`: in the series on Influenza A virus [2], the inhibition result is “inactive”. Besides, in series [3], the EC50 was found to be 136.7 µg/mL (≈ 650 µM).
In the same order, the values of `CCCOC(=O)CCc1ccc(O)c(O)c1` are “inactive” and 89.65 µg/mL (≈ 400 µM).
As to `CCCCC(=O)OCCc1ccc(O)cc1`, the outcome in the series on Influenza A virus [1] was inactive.
On to `COC(=O)CCc1ccc(O)cc1`, for which the result in series [3] was inactive.
As to `CCC(=O)OCCc1ccc(O)c(O)c1`, the “inhibition (INH)” value in the series with Influenza A virus [2] was determined as 75%. Further, the concentration for a half-maximal effect (EC50) in series [3] turned out to be 0.56 µg/mL (≈ 2.66 µM).
Regarding `CCCC(=O)OCCc1ccc(O)c(O)c1` [HYDROXYTYROSOL BUTANOATE], the Activity result was “Toxic” with MDCK [5], “Toxic” with MDCK [6], “Non-toxic” in the series on MDCK [7] and “Non-toxic” with MDCK [8]. In addition, in the series on Influenza A virus [4], the negative-log IC50 (pIC50) is 4.53. Besides, the inhibition result with Influenza A virus [4] is “Dose-dependent effect”. Besides, the concentration giving a half-maximal response (EC50) in series [3] came to 0.58 µg/mL (≈ 2.59 µM).
